# In patent US20230373937A1, “INHIBITORS OF SPINSTER HOMOLOG 2 (SPNS2) FOR USE IN THERAPY” (University of Virginia Patent Foundation, priority 2020, published 2023):
# Structures can show the parent of a compound that is named as a salt.
# Biological target: T1, SPNS2 (Mus musculus, UniProt Q91VM4)
# T1 construct: expressed in transfected cells; host or cells: HeLa or U937 cells
# T1 sequence (Q91VM4 1-549): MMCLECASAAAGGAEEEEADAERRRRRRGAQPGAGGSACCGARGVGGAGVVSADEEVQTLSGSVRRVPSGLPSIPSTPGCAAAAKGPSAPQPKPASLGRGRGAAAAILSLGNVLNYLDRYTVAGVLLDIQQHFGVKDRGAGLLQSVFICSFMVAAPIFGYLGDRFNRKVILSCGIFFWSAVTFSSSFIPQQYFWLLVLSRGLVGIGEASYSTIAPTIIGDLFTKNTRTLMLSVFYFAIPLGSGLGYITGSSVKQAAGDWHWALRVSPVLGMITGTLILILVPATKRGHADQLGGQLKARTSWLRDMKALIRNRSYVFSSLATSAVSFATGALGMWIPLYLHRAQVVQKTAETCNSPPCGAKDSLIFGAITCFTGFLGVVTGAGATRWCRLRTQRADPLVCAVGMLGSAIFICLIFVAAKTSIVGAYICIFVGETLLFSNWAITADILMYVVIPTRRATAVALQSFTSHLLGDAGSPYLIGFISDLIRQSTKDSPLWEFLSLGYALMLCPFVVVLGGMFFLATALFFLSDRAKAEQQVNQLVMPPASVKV
# Assay: S1P transporter assay: S1P release from whole cells expressing SPNS2
# Type: cell-based
# Conditions: HeLa or U937 cells expressing mouse SPNS2; 18 hours; S1P in media measured by LC-MS; read-out: IC50 (in vitro inhibition against SPNS2)
# Procedure: Transporter assays are vectorial and therefore require measurement of the transported analyte in different compartments. The S1P transporter SPNS2 only exports S1P, which obviates measuring uptake of S1P into transporter-expressing cells. Thus, transporter activity was determined by quantifying S1P release from whole cells expressing SPNS2. SPNS2 inhibitor potency was assessed using whole cell assays. HeLa or U937 cells expressing mouse SPNS2 were used to determine inhibitor potency (IC50). Cells were plated onto 12 well plates and assayed when the cell monolayers became confluent. Cell growth media (RPMI-1640 containing 10% fetal bovine serum) was replaced with 2 mL of serum-free media (RPMI-1640) containing fatty acid free bovine serum albumin (BSA) (0.2% w/v) and supplemented with 4-deoxypyridoxine (DOP) (1 mM), NaF (2 mM), Na3VO4 (0.2 mM) to inhibit S1P degradation. Test articles (1×10-9-1×10^-4 M) were assayed in duplicate or triplicate. After 18 hours, media was collected, an internal recovery standard (0.005 mL of 5×10^-7 M deuterated (d7) S1P in methanol) was added, the BSA was precipitated with trichloroacetic acid and the bound S1P extracted with methanol. S1P and S1P-d7 were measured by liquid chromatography mass spectrometry. Inhibitor potency at the human SPNS2 ortholog was determined by an analogous assay using U-937 cells, which endogenously express human SPNS2.
row,SMILES,IC50
1,"CCCCCCCCCCc1ccc(-c2noc(CNC(=O)[C@H]3CCNC3)n2)cc1 [Compound 9x, (S)—N-((3-(4-decylphenyl)-1,2,4-oxadiazol-5-yl)methyl)pyrrolidine-3-carboxamide hydrochloride]",> 2 µM
2,"CCCCCCCCCCc1ccc(-c2noc([C@@H](N)CCCCN)n2)cc1 [Compound 19a, (S)-1-(3-(4-decylphenyl)-1,2,4-oxadiazol-5-yl)pentane-1,5-diamine hydrochloride]",≤ 2 µM
3,"CCCCCCCCCCc1ccc(-c2noc([C@@H](N)CCN)n2)cc1 [Compound 19c, (S)-1-(3-(4-decylphenyl)-1,2,4-oxadiazol-5-yl)propane-1,3-diamine dihydrochloride]",≤ 2 µM
4,"CCCCCCCCCCc1ccc(-c2noc(CNC(=O)[C@@H](N)C(C)C)n2)cc1 [Compound 9f, (S)-2-amino-N-((3-(4-decylphenyl)-1,2,4-oxadiazol-5-yl)methyl)-3-methylbutanamide hydrochloride]",> 2 µM
5,"CCCCCCCCCOc1ccc(-c2noc(CCCN)n2)cc1F [Compound 5v, 3-(3-(3-fluoro-4-(nonyloxy)phenyl)-1,2,4-oxadiazol-5-yl)propan-1-amine hydrochloride]",≤ 2 µM
6,"CCCCCCCCCCc1ccc(-c2noc(CNC(=O)[C@@H](N)CC(C)C)n2)cc1 [Compound 9ad, (S)-2-amino-N-((3-(4-decylphenyl)-1,2,4-oxadiazol-5-yl)methyl)-4-methylpentanamide hydrochloride]",> 2 µM
7,"CCCCCCCCCCc1ccc(-c2noc(CNC(=O)[C@@H]3CCCCN3)n2)cc1 [Compound 9i, (S)—N-((3-(4-decylphenyl)-1,2,4-oxadiazol-5-yl)methyl)piperidine-2-carboxamide hydrochloride]",≤ 2 µM
8,"NCCCc1nc(-c2ccc(OCc3ccccc3)cc2)no1 [Compound 5i, 3-(3-(4-(benzyloxy)phenyl)-1,2,4-oxadiazol-5-yl)propan-1-amine hydrochloride]",> 2 µM
9,"CCCCCCCCCCc1ccc(-c2noc(CN3CCNCC3)n2)cc1 [Compound 5h, 3-(4-decylphenyl)-5-(piperazin-1-ylmethyl)-1,2,4-oxadiazole 2,2,2-trifluoroacetate]",≤ 2 µM
10,"CCCCCCCCCCc1ccc(-c2noc(CNC(=O)[C@@H]3CC[C@@H](N)C3)n2)cc1 [Compound 9ah, (1R,3R)-3-amino-N-((3-(4-decylphenyl)-1,2,4-oxadiazol-5-yl)methyl)cyclopentane-1-carboxamide hydrochloride]",≤ 2 µM
11,"CCCCCCCCCCc1ccc(-c2noc(CNC(=O)[C@@H](N)CO)n2)cc1 [Compound 9s, (S)-2-amino-N-((3-(4-decylphenyl)-1,2,4-oxadiazol-5-yl)methyl)-3-hydroxypropanamide hydrochloride]",> 2 µM
12,"CCCCCCCCCCc1ccc(-c2noc(CC(O)CN(C)C)n2)cc1 (centres unmarked) [Compound 7b, 1-(3-(4-decylphenyl)-1,2,4-oxadiazol-5-yl)-3-(dimethylamino)propan-2-ol hydrochloride]",> 2 µM
13,"CCCCCCCCCCc1ccc(-c2noc(CNC(=O)[C@@H]3C[C@@H](O)CN3)n2)cc1 [Compound 9w, (2S,4R)—N-((3-(4-decylphenyl)-1,2,4-oxadiazol-5-yl)methyl)-4-hydroxypyrrolidine-2-carboxamide hydrochloride]",> 2 µM
14,"CCCCCCCCCCc1ccc(-c2noc(CNC(=O)[C@H]3CNCCO3)n2)cc1 [Compound 9q, (R)—N-((3-(4-decylphenyl)-1,2,4-oxadiazol-5-yl)methyl)morpholine-2-carboxamide hydrochloride]",> 2 µM
15,"CCCCCCCCCCc1ccc(-c2noc(CNC(=O)C[C@@H](O)CN)n2)cc1 [Compound 9y, (R)-4-amino-N-((3-(4-decylphenyl)-1,2,4-oxadiazol-5-yl)methyl)-3-hydroxybutanamide hydrochloride]",> 2 µM
16,"CCCCCCCCCCc1ccc(-c2noc(CNC(=O)CCN)n2)cc1 [Compound 9e, 3-amino-N-((3-(4-decylphenyl)-1,2,4-oxadiazol-5-yl)methyl)propanamide hydrochloride]",> 2 µM
17,"CCCCCCCCCCc1ccc(-c2noc(CC(CN)OC(C)=O)n2)cc1 (centres unmarked) [Compound 5n, 1-amino-3-(3-(4-decylphenyl)-1,2,4-oxadiazol-5-yl)propan-2-yl acetate hydrochloride]",> 2 µM
18,"CCCCCCCCCCc1ccc(-c2noc([C@@H]3CCC[C@@H](N)C3)n2)cc1 (racemic) [Compound 5q, (±)-trans-3-(3-(4-decylphenyl)-1,2,4-oxadiazol-5-yl)cyclohexan-1-amine hydrochloride]",> 2 µM
19,"CCCCCCCCCCc1ccc(-c2noc(CNC(=O)[C@@H](N)Cc3ccccc3)n2)cc1 [Compound 9ac, (S)-2-amino-N-((3-(4-decylphenyl)-1,2,4-oxadiazol-5-yl)methyl)-3-phenylpropanamide hydrochloride]",> 2 µM
20,"CCCCCCCCCCc1ccc(-c2noc([C@@H]3CCN(C(=O)[C@@H](N)C(C)C)C3)n2)cc1 [Compound 9ai, (S)-2-amino-1-((R)-3-(3-(4-decylphenyl)-1,2,4-oxadiazol-5-yl)pyrrolidin-1-yl)-3-methylbutan-1-one 2,2,2-trifluoroacetate]",≤ 2 µM
21,"CCCCCCCCCCc1cccc(-c2noc(CCCN)n2)c1 [Compound 5j, 3-(3-(3-decylphenyl)-1,2,4-oxadiazol-5-yl)propan-1-amine hydrochloride]",≤ 2 µM
22,"C/C(=N\OCCCCc1ccccc1)c1ccc(-c2noc(CCCN)n2)cc1 [Compound 28, 1-(4-(5-(3-aminopropyl)-1,2,4-oxadiazol-3-yl)phenyl)ethan-1-one 0-(4-phenylbutyl) oxime hydrochloride]",> 2 µM
23,"CCCCCCCCCCc1ccc(-c2noc(C(Cl)CCN)n2)cc1 (racemic) [Compound 5k, (±)-3-chloro-3-(3-(4-decylphenyl)-1,2,4-oxadiazol-5-yl)propan-1-amine hydrochloride]",> 2 µM
24,"CCCCCCCCCCc1ccc(-c2noc(CNC(=O)CN(C)C)n2)cc1 [Compound 9ab, N-((3-(4-decylphenyl)-1,2,4-oxadiazol-5-yl)methyl)-2-(dimethylamino)acetamide hydrochloride]",> 2 µM
25,"CCCCCCCCCCc1ccc(-c2noc(CNC(=O)[C@@H]3CCCNC3)n2)cc1 [Compound 9ag, (R)—N-((3-(4-decylphenyl)-1,2,4-oxadiazol-5-yl)methyl)piperidine-3-carboxamide hydrochloride]",≤ 2 µM
26,"CCCCCCCCCOc1ccc(-c2noc(CCCN)n2)cc1C(F)(F)F [Compound 5u, 3-(3-(4-(nonyloxy)-3-(trifluoromethyl)phenyl)-1,2,4-oxadiazol-5-yl)propan-1-amine hydrochloride]",> 2 µM
27,"CCCCCCCCCOc1ccc(-c2noc(CCCN)n2)cc1 [Compound 5t, 3-(3-(4-(nonyloxy)phenyl)-1,2,4-oxadiazol-5-yl)propan-1-amine hydrochloride]",> 2 µM
28,"CCCCCCCCCCc1ccc(-c2noc(CNC(=O)[C@H](C)N)n2)cc1 [Compound 9a, (S)-2-amino-N-((3-(4-decylphenyl)-1,2,4-oxadiazol-5-yl)methyl)propanamide hydrochloride]",≤ 2 µM
29,"CCCCCCCCCCc1ccc(-c2noc(CCN)n2)cc1 [Compound 5b, 2-(3-(4-decylphenyl)-1,2,4-oxadiazol-5-yl)ethan-1-amine 2,2,2-trifluoroacetate]",≤ 2 µM
